We go through five compounds from ChEMBL document CHEMBL1136017, “Computational studies on tetrahydropyrimidine-2-one HIV-1 protease inhibitors: improving three-dimensional quantitative structure-activity relationship comparative molecular field analysis models by inclusion of calculated inhibitor- and receptor-based properties” (J Med Chem, 2002).

What is called Ki is the dissociation constant of the complex between target and ligand, obtained from inhibition or displacement.

The test concerns the target Human immunodeficiency virus type 1 protease (Human immunodeficiency virus 1, UniProt Q72874). Briefly: Inhibitory activity against HIV-1 protease.
Compound `Cc1ccc(C(=O)Nc2cccc(CN3C(=O)N(Cc4cccc(NC(=O)c5ccc(C)cn5)c4)[C@H](Cc4ccccc4)[C@H](O)[C@H]3CCc3ccccc3)c2)nc1` had a Ki of 0.0794 nM.

`N/C(=N\O)c1cccc(CN2C(=O)N[C@H](CCc3ccccc3)[C@@H](O)[C@H]2Cc2ccccc2)c1` gave a Ki of 0.24 nM.

Consider `Nc1cccc(CN2C(=O)N[C@H](CCc3ccccc3)[C@@H](O)[C@H]2Cc2ccccc2)c1`, for which the Ki is 158 nM.

Take `Nc1cccc(CN2C(=O)N[C@H](Cc3ccccc3)[C@H](O)[C@H]2CCc2ccccc2)c1`: the affinity corresponds to a Ki of 6.17 nM.

Take `O=C(Nc1cccc(CN2C(=O)N(Cc3cccc(NC(=O)c4nccs4)c3)[C@H](Cc3ccccc3)[C@H](O)[C@H]2CCc2ccccc2)c1)c1nccs1`: the Ki was 0.0302 nM.
